The numbers were not newly measured in article PMC3530638 (Biochimica et biophysica acta, 2012), which cites them from elsewhere.

This data set deals with B. anthracis. The note with it: cited from earlier work.

With `CCCC1c2ccccc2C=NN1C(=O)/C=C/c1cc(Cc2cnc(N)nc2N)cc(OC)c1OC` (stereo not shown) [n-propyl, (E)-3-[5-(2,4-diaminopyrimidin-5-ylmethyl)-2,3-dimethoxyphenyl]-1-(1-propyl-1h-phthalazin-2-yl)propenone], the minimal inhibitory concentration (MIC) was 1 to 3 µg/mL.

As a reminder, the MIC is the smallest concentration in the dilution series that meets the test's criterion for growth inhibition.
